Source: patent publication US8586571B2, “Heterocyclic compound” (Takeda Pharmaceutical Company Limited, priority 2007, dated 2013)

Key:
human RBP4 = human RBP4 (Homo sapiens (Human), UniProt P02753); test: Binding assay by Retinol-RBP4-TTR ELISA (human-type ELISA); conditions: inhibition of binding of RBP4 with retinol and TTR; retinol 0.5 μM; read-out: human RBP4 binding inhibitory activity (IC50 nM)
Experimental: The action of the compound of the present invention to inhibit binding of RBP4 and retinol and TTR was evaluated using the Retinol-RBP4-TTR ELISA (human-type ELISA) system shown below.
Binding Assay by Retinol-RBP4-TTR ELISA
This ELISA system detects a complex of retinol, RBP4 and TTR by Streptoavidin-Biotin reaction.
His-tagged human RBP4 used was prepared in the above-mentioned 1C.
Biotinylate human TTR used was prepared in the above-mentioned 1E.
Streptavidin (20 μl) (10 μg/ml Streptavidin type II (Wako Pure Chemical Industries, Ltd.), 10 mM Tris-HCl (pH 7.5), 10 mM NaCl) was added to a 384 well black maxisorp plate (Nunc), and the plate was subjected to centrifugation (1000 rpm, 1 min) and coated overnight at 4° C. The plate was washed twice with PBST (PBS, 0.05% Tween 20, 100 μl/well) and blocked with 25% Block Ace (Snow Brand Milk Products Co., Ltd., PBS, 100 μl/well). The plate was subjected to centrifugation (1000 rpm, 1 min) and incubated at room temperature for 4 hr or overnight at 4° C. The plate was washed twice with PEST (PBS, 0.05% Tween 20, 100 μl/well), and biotinylated human TTR (stock solution concentration 1.3 mg/ml) diluted 1000-fold with PBST was added at 20 μl/well. The plate was subjected to centrifugation (1000 rpm, 1 min) and stood still at room temperature for 1.5 hr or overnight at 4° C. The plate was washed 3 times with PBST (100 μl/well), and His-tagged human RBP4 (stock solution concentration 0.96 mg/ml) diluted 4000-fold with a reaction buffer (50 mM Tris-HCl, 150 mM NaCl, 0.005% Tween 20, 1 mM DTT, 0.1% BSA) was added at 10 μl/well. The dilution series (8 doses from 10 mM, 200-fold concentration) of the compound was prepared with DMSO, and 1 μl of each was added to a reaction buffer (200 μl) containing retinol (0.5 μM) (Sigma-Aldrich Co.). A reaction buffer (200 μl) containing retinol and added with DMSO was used as a positive control, and reaction buffer (200 μl) free of retinol and added with DMSO was used as a negative control. Mixed solutions of retinol and the compound were added to the plate at 15 μl/well. The mixture was stirred in a platemixer subjected to centrifugation (1000 rpm, 1 min) and reacted at room temperature for 2 hr. A 35% Block Ace solution diluted with the reaction buffer was added at 10 μl/well, centrifuged (1000 rpm, 1 min) and reacted at room temperature for 30 min. The plate was washed 3 times with PBST (100 μl/well) and SuperSignal ELISA Femto Maximum Sensitivity Substrate reagent (PIERCE) was added at 30 μl/well, and the luminescence was measured by a platereader (Wallac).
The binding inhibitory rate of the compound was determined by 100×(test compound value-negative control value)/(positive control value-negative control value). The binding activity (IC50) was calculated from the binding inhibitory rate at each compound concentration using a graph drawing software, Prism (GraphPad Software Inc.).

RBP4 = RBP4 (Mus musculus (Mouse), UniProt Q00724); test: Blood RBP4 lowering action in C57BL/6J mouse (plasma RBP4 by ELISA); assay type: in vivo; conditions: mean±SD (n=5)
Experimental: A blood RBP4 lowering action of the compound of the present invention was evaluated using C57BL/6J mouse.
Male 7- to 15-week-old C57BL/6J mice (Charles River Laboratories Japan Inc.) were individually bred for acclimation for 4-6 days under conditions with free access to CE-2 solid food (CLEA Japan, Inc.), and grouped based on the body weight (5 per group). The next day of grouping, blood samples were collected from the orbital venous plexus, and plasma was separated (0 hr value). Thereafter, the test compounds (Examples 12, 143, 164, 189, 197, 207 and 215) were orally administered at a dose of 50 mg/kg (solvent: 0.5% methylcellulose solution (10 mL/kg)). At 4, 7 and 24 hr after administration of the compounds, blood samples were collected from the orbital venous plexus, and plasma was separated. A 0.5% methylcellulose solution (10 mL/kg) was orally administered to the control group.
The RBP4 level of the collected plasma was measured by ELISA. RBP4 was quantified by the following steps using a rabbit anti-mouse RBP4 polyclonal antibody (Hokudo Co., Ltd). A 96 well ELISA plate was coated with 50 μg/mL of the antibody (100 μL) and stood at 4° C. overnight. After blocking with BlockAce (DAINIPPON PHARMACEUTICAL CO., LTD.), mouse RBP4 or a sample (100 μL) was added and the plate was stood at room temperature for 2 hr. After washing with PBS-0.5% Tween 20, HRP-labeled anti-RBP4 antibody (prepared by labeling RBP4 polyclonal antibody (Hokudo Co., Ltd) with HRP (DOJINDO LABORATORIES)) was added by 100 μL, and the plate was stood at room temperature for 1 hr. After washing, TMB (Dako Cytomations) was added, and the mixture was stood at room temperature for 20 min to allow color development, and the reaction was quenched with 2N sulfuric acid. Thereafter, the absorbance at A450 nm was measured on a platereader. The amount of change from the initial value of each animal was determined as a relative value from the control group (% of initial/Control) at each time point. The results are shown in the following in mean±standard deviation (n=5).

Zucker fa/fa rat = test: TG-lowering action using Zucker fa/fa rat (Charles River Laboratories Japan Inc.); assay type: in vivo; conditions: oral 30 mg/kg for 2 weeks
Experimental: An anti-diabetes action and a blood triglyceride (hereinafter TG)-lowering action of the compound of the present invention were evaluated using Zucker fa/fa rats.
Male 10-week-old Zucker fa/fa rats (Charles River Laboratories Japan Inc.) were bred in group on CE-2 solid food (CLEA Japan, Inc.) until 12-week-old for acclimation under conditions with free access to food. At 12-week-old, the rats were grouped based on the body weight, blood glucose level, glycated hemoglobin level, blood RBP4 level and blood triglyceride blood (hereinafter TG) (5 per group). Thereafter, the test compound (Example 12) was orally administered at a dose of 30 mg/kg (solvent: 0.5% methylcellulose solution (3 mL/kg)) for 2 weeks. The next day of the final administration of the compound, blood samples were collected from the tail vein, and plasma was separated. Using the collected plasma, (1) RBP4 concentration and (2) TG level were measured. (1) was quantified according to the protocol described in Experimental Example 2. (2) was measured using Hitachi fully automatic analyzer (Model 7070).
A 0.5% methylcellulose solution (5 mL/kg) was orally administered to the control group. […] The results are shown in the following in mean±standard deviation (n=5).

IC50 (human RBP4): 210 nM
RBP4 (% of initial/Control) 4 hr later (RBP4; 4 hr after single oral 50 mg/kg): 57.7 ± 3.6 % of initial/Control
RBP4 (% of initial/Control) 7 hr later (RBP4; 7 hr after single oral 50 mg/kg): 44.3 ± 2.0 % of initial/Control
RBP4 (% of initial/Control) 24 hr later (RBP4; 24 hr after single oral 50 mg/kg): 50.0 ± 3.4 % of initial/Control
Structure (SMILES): CC(C)(C)c1ccccc1OC1CN(C(=O)CCC(=O)O)C1 [Example 12, 4-(3-(2-tert-butylphenoxy)azetidin-1-yl)-4-oxobutanoic acid]
TG (result in words) (Zucker fa/fa rat; versus control): significant decrease
blood RBP4 concentration (result in words) (Zucker fa/fa rat; versus control): significant decrease
RBP4 (Zucker fa/fa rat; plasma, mean±SD (n=5)): 8.2 ± 1.1 µg/mL
TG (Zucker fa/fa rat; plasma, mean±SD (n=5)): 650.8 ± 130.6 mg/dL
